Measurements from article PMC5218480 (PLoS ONE, 2017).

System: MV-4-11 cells
Experiment: Gene expression microarray analysis (Affymetrix PrimeView) and GSEA
Assay type: cell-based, human
Design: RFU PODN (11730768_x_at) / Fold change /veh PODN (11730768_x_at) / RFU LINC00158 (11744669_a_at) / Fold change /veh LINC00158 (11744669_a_at) / RFU DUSP10 (11751237_a_at) / Fold change /veh DUSP10 (11751237_a_at) / RFU ID3 (11757404_x_at) / Fold change /veh ID3 (11757404_x_at) / RFU PLEKHG5 (11737974_s_at) / Fold change /veh PLEKHG5 (11737974_s_at) / RFU LRRC4B (11730491_at) / Fold change /veh LRRC4B (11730491_at) / RFU GIMAP4 (11747438_a_at) / Fold change /veh GIMAP4 (11747438_a_at) / RFU KRT8 (11758183_x_at) / Fold change /veh KRT8 (11758183_x_at) / RFU CNN1 (11734310_a_at) / Fold change /veh CNN1 (11734310_a_at) / RFU VPS37D (11726825_at) / Fold change /veh VPS37D (11726825_at) / RFU C10orf10 (11716522_x_at) / Fold change /veh C10orf10 (11716522_x_at) / RFU KIR2DL2 /// KIR2DL4 /// KIR2DL5A /// KIR2DL5B /// KIR2DS1 /// KIR2DS2 /// KIR2DS3 /// KIR2DS4 /// KIR3DL3 /// KIR3DL3 /// KIR3DS1 (11738374_at) / Fold change /veh KIR2DL2 /// KIR2DL4 /// KIR2DL5A /// KIR2DL5B /// KIR2DS1 /// KIR2DS2 /// KIR2DS3 /// KIR2DS4 /// KIR3DL3 /// KIR3DL3 /// KIR3DS1 (11738374_at) / RFU C1QL1 (11718748_at) / Fold change /veh C1QL1 (11718748_at) / RFU TMPRSS4 (11747572_a_at) / Fold change /veh TMPRSS4 (11747572_a_at) / RFU HAMP (11756126_x_at) / Fold change /veh HAMP (11756126_x_at) / RFU RNFT2 (11725882_a_at) / Fold change /veh RNFT2 (11725882_a_at) / RFU NR4A2 (11747474_a_at) / Fold change /veh NR4A2 (11747474_a_at) / RFU ABCC12 (11746883_a_at) / Fold change /veh ABCC12 (11746883_a_at) / RFU TMEM136 (11760407_x_at) / Fold change /veh TMEM136 (11760407_x_at) / RFU CLDN22 /// WWC2 (11732394_at) / Fold change /veh CLDN22 /// WWC2 (11732394_at) / RFU HLA-DPB1 (11760878_x_at) / Fold change /veh HLA-DPB1 (11760878_x_at) / RFU SPINT1 (11716480_a_at) / Fold change /veh SPINT1 (11716480_a_at) / RFU GAP43 (11754022_s_at) / Fold change /veh GAP43 (11754022_s_at) / RFU A4GNT (11735810_at) / Fold change /veh A4GNT (11735810_at) / RFU PRB3 (11715151_x_at) / Fold change /veh PRB3 (11715151_x_at) / RFU TUBB4B (11761932_at) / Fold change /veh TUBB4B (11761932_at) / RFU CAPN14 (11732068_a_at) / Fold change /veh CAPN14 (11732068_a_at) / RFU TMCC2 (11721928_a_at) / Fold change /veh TMCC2 (11721928_a_at) / RFU IRGQ (11745062_a_at) / Fold change /veh IRGQ (11745062_a_at) / RFU FAM174B (11720279_a_at) / Fold change /veh FAM174B (11720279_a_at) / RFU TMPRSS4 (11748680_a_at) / Fold change /veh TMPRSS4 (11748680_a_at) / RFU FAM212B (11763350_a_at) / Fold change /veh FAM212B (11763350_a_at) / RFU PLEKHG5 (11743358_a_at) / Fold change /veh PLEKHG5 (11743358_a_at) / RFU ZSCAN30 (11745921_a_at) / Fold change /veh ZSCAN30 (11745921_a_at) / RFU CMKLR1 (11741424_a_at) / Fold change /veh CMKLR1 (11741424_a_at) / RFU LOC101060620 /// MAPK8IP1 (11723275_at) / Fold change /veh LOC101060620 /// MAPK8IP1 (11723275_at) / RFU SPTSSB (11747773_x_at) / Fold change /veh SPTSSB (11747773_x_at) / RFU PRSS12 (11739890_at) / Fold change /veh PRSS12 (11739890_at) / RFU BIN1 (11741810_x_at) / Fold change /veh BIN1 (11741810_x_at) / RFU WNT11 (11732464_a_at) / Fold change /veh WNT11 (11732464_a_at) / RFU C10orf10 (11716521_a_at) / Fold change /veh C10orf10 (11716521_a_at) / RFU C5orf56 (11738089_at) / Fold change /veh C5orf56 (11738089_at) / RFU CYB561 (11721691_x_at) / Fold change /veh CYB561 (11721691_x_at) / RFU ANKRD19P (11752326_a_at) / Fold change /veh ANKRD19P (11752326_a_at) / RFU OR2T12 /// OR2T33 /// OR2T8 (11738714_s_at) / Fold change /veh OR2T12 /// OR2T33 /// OR2T8 (11738714_s_at) / RFU VCAN (11748164_a_at) / Fold change /veh VCAN (11748164_a_at) / RFU JSRP1 (11732532_at) / Fold change /veh JSRP1 (11732532_at) / RFU KRTAP10-11 (11738290_x_at) / Fold change /veh KRTAP10-11 (11738290_x_at) / RFU MYO3A (11730013_a_at) / Fold change /veh MYO3A (11730013_a_at) / RFU EBF3 (11725865_a_at) / Fold change /veh EBF3 (11725865_a_at) / RFU CAMK2N1 (11719241_x_at) / Fold change /veh CAMK2N1 (11719241_x_at) / RFU C5orf56 (11738088_a_at) / Fold change /veh C5orf56 (11738088_a_at) / RFU OLFML3 (11715873_a_at) / Fold change /veh OLFML3 (11715873_a_at) / RFU LOC100653217 /// NTM (11731650_a_at) / Fold change /veh LOC100653217 /// NTM (11731650_a_at) / RFU MAPK11 (11762145_a_at) / Fold change /veh MAPK11 (11762145_a_at) / RFU FIZ1 (11724087_x_at) / Fold change /veh FIZ1 (11724087_x_at) / RFU OASL (11726364_x_at) / Fold change /veh OASL (11726364_x_at) / RFU SOX15 (11748057_x_at) / Fold change /veh SOX15 (11748057_x_at) / RFU CD79A (11719716_a_at) / Fold change /veh CD79A (11719716_a_at) / RFU HIST1H1D (11736915_at) / Fold change /veh HIST1H1D (11736915_at) / RFU CASKIN2 (11723855_a_at) / Fold change /veh CASKIN2 (11723855_a_at) / RFU LOC730098 (11760151_x_at) / Fold change /veh LOC730098 (11760151_x_at) / RFU OR4N2 (11742367_at) / Fold change /veh OR4N2 (11742367_at) / RFU PRRT2 (11749266_a_at) / Fold change /veh PRRT2 (11749266_a_at) / RFU SNX32 (11753110_a_at) / Fold change /veh SNX32 (11753110_a_at) / RFU CDHR5 (11726645_a_at) / Fold change /veh CDHR5 (11726645_a_at) / RFU RCAN1 (11760418_a_at) / Fold change /veh RCAN1 (11760418_a_at) / RFU FAM167A (11723789_a_at) / Fold change /veh FAM167A (11723789_a_at) / RFU FAM26E (11764081_at) / Fold change /veh FAM26E (11764081_at) / RFU ISYNA1 (11749810_s_at) / Fold change /veh ISYNA1 (11749810_s_at) / RFU ACY1 (11761880_at) / Fold change /veh ACY1 (11761880_at) / RFU 11764098_at / Fold change /veh 11764098_at / RFU SAMD14 (11745864_x_at) / Fold change /veh SAMD14 (11745864_x_at) / RFU NPB (11741838_a_at) / Fold change /veh NPB (11741838_a_at) / RFU TMPRSS6 (11731388_a_at) / Fold change /veh TMPRSS6 (11731388_a_at) / RFU KRTAP10-2 (11738614_at) / Fold change /veh KRTAP10-2 (11738614_at) / RFU ARHGAP8 /// PRR5-ARHGAP8 (11727945_x_at) / Fold change /veh ARHGAP8 /// PRR5-ARHGAP8 (11727945_x_at) / RFU KRTAP5-7 /// NADSYN1 (11734609_at) / Fold change /veh KRTAP5-7 /// NADSYN1 (11734609_at) / RFU RASL12 (11751679_a_at) / Fold change /veh RASL12 (11751679_a_at) / RFU CDKN2B (11736163_a_at) / Fold change /veh CDKN2B (11736163_a_at) / RFU PRF1 (11729649_at) / Fold change /veh PRF1 (11729649_at) / RFU, ZNF638 /// ZNF638-IT1 / Fold change vs veh, ZNF638 /// ZNF638-IT1 / RFU, PANK3 / Fold change vs veh, PANK3 / RFU, SH3YL1 / Fold change vs veh, SH3YL1 / RFU, ZEB2 / Fold change vs veh, ZEB2 / RFU, NRIP1 / Fold change vs veh, NRIP1 / RFU, PTTG1IP / Fold change vs veh, PTTG1IP / RFU, CAPN2 / Fold change vs veh, CAPN2 / RFU, MED14 / Fold change vs veh, MED14 / RFU, SNORA58 / Fold change vs veh, SNORA58 / RFU, C1orf63 / Fold change vs veh, C1orf63 / RFU, LRRFIP1 / Fold change vs veh, LRRFIP1 / RFU, NDUFAF7 / Fold change vs veh, NDUFAF7 / RFU, SLC12A2 / Fold change vs veh, SLC12A2 / RFU, IBTK / Fold change vs veh, IBTK / RFU, ESF1 / Fold change vs veh, ESF1 / Fold change vs veh, TMEM50B / RFU, TAOK1 / Fold change vs veh, TAOK1 / RFU, ACBD3 / Fold change vs veh, ACBD3 / RFU, TMA16 / Fold change vs veh, TMA16 / RFU, RWDD3 / Fold change vs veh, RWDD3 / RFU, BCAT1 / Fold change vs veh, BCAT1 / RFU, EDEM3 / Fold change vs veh, EDEM3 / RFU, TMEM33 / Fold change vs veh, TMEM33 / RFU, WDR75 / Fold change vs veh, WDR75 / RFU, AHCTF1 / Fold change vs veh, AHCTF1 / RFU, TFRC / Fold change vs veh, TFRC / RFU, ZDHHC17 / Fold change vs veh, ZDHHC17 / RFU, NOM1 / Fold change vs veh, NOM1 / RFU, ARL8B / Fold change vs veh, ARL8B / RFU, ZBTB11 / Fold change vs veh, ZBTB11 / RFU, TAMM41 / Fold change vs veh, TAMM41 / RFU, KIAA1704 /// LOC100996395 / Fold change vs veh, KIAA1704 /// LOC100996395 / RFU, ING1 / Fold change vs veh, ING1 / RFU, TRMT61B / Fold change vs veh, TRMT61B / RFU, FUBP3 / Fold change vs veh, FUBP3 / RFU, TP53 / Fold change vs veh, TP53 / RFU, TNKS2 / Fold change vs veh, TNKS2 / RFU, ZFP14 / Fold change vs veh, ZFP14 / RFU, ACTR2 / Fold change vs veh, ACTR2 / RFU, PPP3R1 / Fold change vs veh, PPP3R1 / RFU, PIK3R1 / Fold change vs veh, PIK3R1 / RFU, HNRNPA1 / Fold change vs veh, HNRNPA1 / RFU, RNF170 / Fold change vs veh, RNF170 / RFU, ZNF28 / Fold change vs veh, ZNF28 / RFU, RNGTT / Fold change vs veh, RNGTT / RFU, OGT / Fold change vs veh, OGT / RFU, BRD1 / Fold change vs veh, BRD1 / RFU, MARS / Fold change vs veh, MARS / RFU, ZNF655 / Fold change vs veh, ZNF655 / RFU, FAHD1 / Fold change vs veh, FAHD1 / RFU, BDP1 / Fold change vs veh, BDP1 / RFU, LRRCC1 / Fold change vs veh, LRRCC1 / RFU, ARID1A / Fold change vs veh, ARID1A / RFU, ZNF146 / Fold change vs veh, ZNF146 / RFU, ZNF330 / Fold change vs veh, ZNF330 / RFU, GPN3 / Fold change vs veh, GPN3 / RFU, C9orf123 / Fold change vs veh, C9orf123 / RFU, N4BP2L2 / Fold change vs veh, N4BP2L2 / RFU, ARFIP1 / Fold change vs veh, ARFIP1 / RFU, FAM179B / Fold change vs veh, FAM179B / RFU, BCL10 / Fold change vs veh, BCL10 / RFU, UHRF1BP1L / Fold change vs veh, UHRF1BP1L / RFU, BET1 / Fold change vs veh, BET1 / RFU, CNOT2 / Fold change vs veh, CNOT2 / RFU, ZNF268 / Fold change vs veh, ZNF268 / Fold change vs veh, ZNF507 / RFU, DGCR2 / Fold change vs veh, DGCR2 / RFU, WDSUB1 / Fold change vs veh, WDSUB1 / Fold change vs veh, HSP90B1 /// MIR3652 / RFU, ADSS / Fold change vs veh, ADSS / RFU, GK / Fold change vs veh, GK / RFU, ZNF148 / Fold change vs veh, ZNF148 / RFU, TAF9 / Fold change vs veh, TAF9 / RFU, SLC1A5 / Fold change vs veh, SLC1A5 / RFU, SLMO2 / Fold change vs veh, SLMO2 / RFU, ABCC4 / Fold change vs veh, ABCC4 / RFU, LOC101060439 /// RAP1B / Fold change vs veh, LOC101060439 /// RAP1B / RFU, RFX7 / Fold change vs veh, RFX7 / RFU, GTPBP10 / Fold change vs veh, GTPBP10 / RFU, CNEP1R1 / Fold change vs veh, CNEP1R1 / RFU, BIVM-ERCC5 /// ERCC5 / Fold change vs veh, BIVM-ERCC5 /// ERCC5 / RFU, ILF3 / Fold change vs veh, ILF3 / RFU 11762660_at / Fold change /veh 11762660_at / RFU VCAN (11757783_s_at) / Fold change /veh VCAN (11757783_s_at) / RFU DDX43 (11728927_at) / Fold change /veh DDX43 (11728927_at) / RFU KRT8 (11758188_x_at) / Fold change /veh KRT8 (11758188_x_at) / RFU NKD1 (11759106_at) / Fold change /veh NKD1 (11759106_at) / RFU SRD5A1 (11742802_a_at) / Fold change /veh SRD5A1 (11742802_a_at) / RFU TPSAB1 /// TPSB2 (11721975_s_at) / Fold change /veh TPSAB1 /// TPSB2 (11721975_s_at) / RFU GSTM3 (11746129_a_at) / Fold change /veh GSTM3 (11746129_a_at) / RFU IL23R (11737362_x_at) / Fold change /veh IL23R (11737362_x_at) / RFU TMEM51 (11727254_a_at) / Fold change /veh TMEM51 (11727254_a_at) / RFU PIWIL2 (11732686_x_at) / Fold change /veh PIWIL2 (11732686_x_at) / RFU ORM1 (11744905_x_at) / Fold change /veh ORM1 (11744905_x_at) / RFU CCDC152 (11743942_at) / Fold change /veh CCDC152 (11743942_at) / RFU ECM1 (11717891_a_at) / Fold change /veh ECM1 (11717891_a_at) / RFU IL23R (11748794_a_at) / Fold change /veh IL23R (11748794_a_at) / RFU TNFAIP8L3 (11732012_x_at) / Fold change /veh TNFAIP8L3 (11732012_x_at) / RFU MBOAT4 (11741988_at) / Fold change /veh MBOAT4 (11741988_at) / RFU 11764193_at / Fold change /veh 11764193_at / RFU TMEM53 (11763286_at) / Fold change /veh TMEM53 (11763286_at) / RFU MAGEB2 (11727129_at) / Fold change /veh MAGEB2 (11727129_at) / RFU TMEM200A (11744735_a_at) / Fold change /veh TMEM200A (11744735_a_at) / RFU CCDC152 (11751479_a_at) / Fold change /veh CCDC152 (11751479_a_at) / RFU FAM211A (11726209_a_at) / Fold change /veh FAM211A (11726209_a_at) / RFU RGS16 (11746705_a_at) / Fold change /veh RGS16 (11746705_a_at) / RFU VCAN (11755009_s_at) / Fold change /veh VCAN (11755009_s_at) / RFU RHOB (11743442_s_at) / Fold change /veh RHOB (11743442_s_at) / RFU RGS16 (11720943_a_at) / Fold change /veh RGS16 (11720943_a_at) / RFU RGS16 (11720944_at) / Fold change /veh RGS16 (11720944_at) / RFU, VPS4B / Fold change vs veh, VPS4B / RFU, CREB1 / Fold change vs veh, CREB1 / RFU, DNAJC13 / Fold change vs veh, DNAJC13 / RFU, GNAQ / Fold change vs veh, GNAQ / RFU, CDK5R1 / Fold change vs veh, CDK5R1 / RFU, ZRANB3 / Fold change vs veh, ZRANB3 / RFU, CUL4A / Fold change vs veh, CUL4A / RFU, CCNY / Fold change vs veh, CCNY / RFU, UFL1 / Fold change vs veh, UFL1 / RFU, COG3 / Fold change vs veh, COG3 / RFU, DIAPH2 / Fold change vs veh, DIAPH2 / RFU, SKA2 / Fold change vs veh, SKA2 / RFU, AFF3 / Fold change vs veh, AFF3 / RFU, LMF1 / Fold change vs veh, LMF1 / RFU, IPO11 / Fold change vs veh, IPO11 / RFU, DFFB / Fold change vs veh, DFFB / RFU, FOXP1 / Fold change vs veh, FOXP1 / RFU, CARD8 / Fold change vs veh, CARD8 / RFU, STRN3 / Fold change vs veh, STRN3 / RFU, ADK / Fold change vs veh, ADK / RFU, RASSF2 / Fold change vs veh, RASSF2 / RFU, WIPF1 / Fold change vs veh, WIPF1 / RFU, LARP1B / Fold change vs veh, LARP1B / RFU, RASA1 / Fold change vs veh, RASA1 / RFU, RB1 / Fold change vs veh, RB1 / RFU, PPFIA1 / Fold change vs veh, PPFIA1 / RFU, MAT2A / Fold change vs veh, MAT2A / RFU, CCT5 / Fold change vs veh, CCT5 / RFU, WDR92 / Fold change vs veh, WDR92 / RFU, CUX1 / Fold change vs veh, CUX1 / RFU, TTC7A / Fold change vs veh, TTC7A / RFU, TMEM135 / Fold change vs veh, TMEM135 / RFU, DEPTOR / Fold change vs veh, DEPTOR / RFU, CPM / Fold change vs veh, CPM / RFU, DNAJB6 / Fold change vs veh, DNAJB6 / RFU, CACNA2D3 / Fold change vs veh, CACNA2D3 / RFU, DTX4 / Fold change vs veh, DTX4 / RFU, TFCP2 / Fold change vs veh, TFCP2 / RFU, GMCL1 /// GMCL1P1 / Fold change vs veh, GMCL1 /// GMCL1P1 / RFU, AEBP2 / Fold change vs veh, AEBP2 / RFU, SNHG1 /// SNORD22 /// SNORD25 /// SNORD26 /// SNORD27 /// SNORD28 /// SNORD29 /// SNORD31 / Fold change vs veh, SNHG1 /// SNORD22 /// SNORD25 /// SNORD26 /// SNORD27 /// SNORD28 /// SNORD29 /// SNORD31 / Fold change (Aza/veh), C12orf56 (ProbeSet 11735607_a_at) / Fold change (ACY-1035/veh), C12orf56 (ProbeSet 11735607_a_at) / Fold change (Aza/veh), FGFR1OP (ProbeSet 11751329_s_at) / Fold change (ACY-1035/veh), FGFR1OP (ProbeSet 11751329_s_at) / Fold change (Aza/veh), VPS36 (ProbeSet 11739960_a_at) / Fold change (ACY-1035/veh), VPS36 (ProbeSet 11739960_a_at) / RFU SYPL1 (11715823_x_at) / Fold change /veh SYPL1 (11715823_x_at) / RFU IGFBP7 (11715501_s_at) / Fold change /veh IGFBP7 (11715501_s_at) / RFU REEP3 (11722064_at) / Fold change /veh REEP3 (11722064_at) / RFU IGLL1 (11728026_x_at) / Fold change /veh IGLL1 (11728026_x_at): dose or concentration left out as unconfirmed
Settings: ProbeSet 11733831_s_at; LIST D

## Nc1ccc(-c2cccs2)cc1NC(=O)c1ccc2c(c1)cc(C1CC1)n2CCN1CCOCC1 [ACY-1035]
  RFU, GMCL1 /// GMCL1P1: 34.22 RFU
